This is an account of results in patent US10945685B2, “System and method for normalizing standardized uptake values in brain positron emission tomography (PET) images” (New York University, priority 2018, dated 2021).

Assay [1] has as its target T1, Monoamine oxidase A (MAO-A) (Homo sapiens, UniProt P21397).
T1 sequence (P21397 1-527): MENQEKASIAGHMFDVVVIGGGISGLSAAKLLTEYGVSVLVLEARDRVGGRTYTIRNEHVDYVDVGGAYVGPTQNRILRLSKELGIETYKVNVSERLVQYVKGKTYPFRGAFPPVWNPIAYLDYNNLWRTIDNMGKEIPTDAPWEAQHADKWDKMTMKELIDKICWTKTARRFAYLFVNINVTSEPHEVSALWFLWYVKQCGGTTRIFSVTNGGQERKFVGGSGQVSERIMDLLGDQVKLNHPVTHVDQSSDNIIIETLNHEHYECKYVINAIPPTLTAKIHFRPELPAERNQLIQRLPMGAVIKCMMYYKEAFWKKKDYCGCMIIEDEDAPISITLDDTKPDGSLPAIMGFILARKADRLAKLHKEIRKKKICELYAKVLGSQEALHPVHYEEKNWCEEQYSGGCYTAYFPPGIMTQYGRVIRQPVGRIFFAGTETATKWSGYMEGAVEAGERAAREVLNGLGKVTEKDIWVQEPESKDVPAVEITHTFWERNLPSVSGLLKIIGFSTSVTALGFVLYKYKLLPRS
As to conditions: recent data, background; cited from earlier work.

Assay [2] deals with tau. Put plainly: Example II: global and regional tau binding by SUVR, PERSI and SUVP, 42 NL and 22 AD. The class given is in vivo, human. The conditions noted are these: with SUVR, 64 subjects. The text has this: Example II, as discussed below, provides an exemplary embodiment comparing tau PET uptake quantification methods based on a 18F-AV-1451 tracer. Quantitative measurement of tau bindings from PET tracers (such as AV1451) is crucial in the PET-based study of tauopathies (such as Alzheimer's). The standardized uptake value ratio (SUVR) method has been challenged by the off-target binding in reference region. An unbiased tau binding quantification may be achieved via several different methods, including the Parametric Estimate of Reference Signal Intensity (PERSI) method by Avid Radiopharmaceutical and standardized uptake value peak-alignment (SUVP) method. In Example II, we compared the sensitivity of SUVR, PERSI and SUVP methods on the same PET dataset, in both global and local regions.
Using SUVR, PERSI, and SUVP, we evaluated the global and regional tau binding of 18F-AV-1451 on 64 subjects, with 42 cognitively normal (NL) and 22 Alzheimer's disease (AD), and compared the group differences of tau binding under the three different methods. Cerebral cortex was used as ROI for global binding test. The average SUVP value in ROIs is computed by averaging all positive SUVP values (SUVP>0) within the ROI, and positive binding percentage (PBP) for SUVP is defined as the ratio of voxel number with SUVP>1.5 over the total voxel number within the ROI.

Consider `[18F]c1ccc(-c2ccc3c(c2)[nH]c2ccncc23)cn1` [AV-1451], for which the MAO-A binding result in assay [1] is “some Monoamine oxidase A (MAO-A) binding”. Also, the “tau binding, AD subjects versus cognitively normal NL subjects” value in assay [2] is listed as “significantly higher tau binding”.
